Where a name gives a salt, the structure may show the parent alone.
Tests used:
[1] = target: other neurotransmitter receptors; details: except sigma receptors; cited from earlier work
[2] = tested on: DRN 5-HT neurons; assay: In vivo electrophysiological recordings of DRN 5-HT neurons; set-up: species or system mice; details: RS67333 1.5 mg/kg i.p.; after vs before administration
Procedure: FIGS. 7A-7G. Acute 5-HT4 receptor stimulation induces fast anxiolytic-like effects on 5-HT function through a modulation of the mPFC in an anxious BALB/cJRj mouse strain. (7A) Before the administration of RS67333 (RS, 1.5 mg/kg), different tracks were performed to record 5-HT neurons for 30 min. At the end of this period, RS67333 was administered i.p. and 30 min after, two or three subsequent tracks were realized. (7B) Discharge frequency of DRN 5-HT neurons is assessed as mean firing rate. The number of neurons tested is indicated in each histogram (n=25 and 26 before and after RS injection for a total of n=5 mice). Data are mean±[…] of DRN 5-HT neurons determined before the administration of RS67333. (7C) Typical recordings of DRN 5-HT neurons in the different experimental conditions. Histograms in the upper panels represent the number of action potentials (APs) per 10 seconds (scale bar). […] (7E) Cortical 5-HT depletion by p-CPA pre-treatment is measured as mean 5-HT levels (n=6-8 mice per group). (7F and 7G) Anxiety is measured in the elevated plus maze (EPM) as mean time or percent time spent in the open arms (F and inset), as mean ratio ambulatory distance in open arms/total distance (7G) and as mean total ambulatory distance (inset) (n=8-11 mice per group). […]

[3] = tested on: BALB/cJRj mice; assay: Open field paradigm (OF), acute anxiolytic-like effect; type: in vivo; details: for percent time spent in Center (OF) vs vehicle: male BALB/cJRj, RS67333 1.5, diazepam 1.5, fluoxetine 18 mg/kg; for time spent in the center of the OF: single dose 1.5 mg/kg, 48 hours after the injection
Source text: (§1) Motor activity was quantified in four 39×39 cm perpex plastic open field boxes (Vivo-tech/Ugo Basile, Salon de Provence, France). The apparatus was illuminated from the ground with special designed 40×40 cm Infra-red backlights (monochromatic wavelength 850 nm high homogeneity, Vivo-tech, Salon de Provence, France). Activity chambers were monitored by four black and white cameras with varifocal optics and polarizing filters (Vivo-tech, Salon de Provence, France). For optogenetic experiments, optical bandpass filters were specifically selected to improve tracking detection. The whole set-up was controlled using ANYMAZE version 6 video tracking software (Stoelting Co/Vivo-tech, Salon de Provence, France). Dependent measures were time in the center over a 10 min for systemic administration or 6 min test period for optogenetic experiments, total ambulatory distance and ambulatory distance traveled in the center divided by total distance.

[4] = tested on: BALB/cJRj mice; assay: OF with optogenetic inhibition of mPFC terminals in the DRN (CaMKII-ArchT); type: in vivo; details: intra-mPFC RS67333 0.5 pg/side or diazepam 1.5 pg/side; for inhibition of the drug-induced increase in center time (OF) during 3-min green light illumination: light ON
Source text: as §1
To target opsin expression selectively to cortical glutamatergic terminals in the DRN, AAV5-CaMKIIα-ChR2-enhanced yellow fluorescent protein (eYFP), AAV5-CaMKII-ArchT-green fluorescent protein (GFP) or AAV5-CaMKII-eYFP, obtained from Karl Deisseroth and Ed Boyden (UNC Vector Core, NC, USA) were bilaterally injected into the mPFC (in mm from bregma, A=+2.10, L=±0.50, V=−2.60). Mice injected with AAV5-CamKII-eYFP were used as control.
BALB/cJRj mice were surgically implanted with fiber optics targeted to the DRN (in mm from bregma, A=−4.50, L=+1.20, V=−4.0, angle 15°). A […] core, 0.37 NA fiber optic (ThorLabs, ˜10-12 and 15-16 mW for ChR2 and Arch-T, respectively, at the tip of optic) was used for optical stimulation via a patch cable connected to either a 473 or 532 nm laser diode (OEM laser systems, USA) as previously described (A-S15). For behavioral experiments, AAV5-CaMKIIα-ChR2-eYFP mice and their controls received a 10 Hz stimulation, 20 ms pulses, over a 3-minute period whereas a green light was delivered continuously to AAV5-CaMKII-ArchT-GFP throughout the 3 min testing period. Similar doses of RS67333 (locally in the mPFC at […] or at 1.5 mg/kg, i.p.) and diazepam (locally in the mPFC at […] or at 1.5 mg/kg, i.p.) were infused in the mPFC or administered i.p. The stimulation or the inhibition of mPFC projections in the DRN occurred simultaneously to the behavioral paradigms.

| Compound | pKi for other neurotransmitter receptors [1] | increase of the discharge frequency of DRN 5-HT neurons [2] [%] | percent time spent in Center (OF) vs vehicle ([3]; i.p. 45 min before testing) | time spent in the center of the OF [3] | time spent in the center (OF), light OFF [4] | inhibition of the drug-induced increase in center time (OF) during 3-min green light illumination [4] [%] | ratio of ambulatory distance in the center divided by total distance (OF) vs vehicle ([3]; i.p. 45 min before testing, RS67333 1.5, diazepam 1.5 mg/kg) |
| --- | --- | --- | --- | --- | --- | --- | --- |
| CCCCN1CCC(CCC(=O)c2cc(Cl)c(N)cc2OC)CC1.Cl [RS-67,333, 1-(4-amino-5-chloro-2-methoxyphenyl)-3-[1(n-butyl)-4-piperidinyl]-1-propanone HCl] | less than 6.7 | 63 | increase | increased the time spent in the center | increased significantly the time spent in the center | 85±20 |  |
| CN1C(=O)CN=C(c2ccccc2)c2cc(Cl)ccc21 [diazepam, Diazepam hydrochloride] |  |  | increase | have not been able to observe any long-term activity | increased significantly the time spent in the center | 80±22 | significantly increased |
